Experimental data published in paper PMC4671956, “Exploiting Transient Protein States for the Design of Small-Molecule Stabilizers of Mutant p53” (Structure(London, England:1993), 2015).

Tests used:
p53 Y220C mutant [1] = molecular target: T1, p53 Y220C mutant (Homo sapiens, UniProt P04637, M133L/N239Y/N268D/V203A/Y220C); test: Dissociation constant by nuclear magnetic resonance spectroscopy (NMR); format: binding
Experimental: (§1) Dissociation constants for the binding of ligands to the p53 Y220C mutant were determined by either nuclear magnetic resonance spectroscopy or isothermal calorimetry as described by [Wilcken et al. (2012a)].

p53 Y220C mutant [2] = molecular target: T1, p53 Y220C mutant; design: method as in Boeckler et al., 2008; settings: ref Boeckler et al., 2008; cited from earlier work
p53 Y220C mutant [3] = molecular target: T1, p53 Y220C mutant; design: method as in Boeckler et al., 2008; settings: ref Boeckler et al., 2008; cited from earlier work; remark: listed apart in the source
[4] = tested on: cancer cell lines expressing the Y220C mutant; design: method as in Liu et al., 2013; settings: ref Liu et al., 2013; cited from earlier work
p53 Y220C mutant [5] = molecular target: T1, p53 Y220C mutant; test: Dissociation constant by isothermal calorimetry (ITC); format: binding
Experimental: as §1

[6] = NMR, p53-Y220C ligand complex, read-out: KD

Work on `O=C(Nc1ccc(Cl)cc1O)C1CCNCC1` [Compound 12] yielded a Kd (p53 Y220C mutant [1]; [6]) of 1270 µM.
In the case of `O=C(O)c1cc(I)cc(I)c1O` [Compound 4], the “ligand efficiency [LE]” value (p53 Y220C mutant [1]; from KD = 820 μM (NMR)) is reported as 0.35 kcal/mol per non-hydrogen atom.
Compound `Nc1cc(C(F)(F)F)cc(Br)c1N` [Compound 11] has a Kd (p53 Y220C mutant [1]; [6]) of 4800 µM.
For `CCn1c2ccccc2c2cc(CNC)ccc21` [Compound 1, PhiKan083], the “effect on melting temperature of the protein” value (p53 Y220C mutant [2]) is given as “raises the melting temperature of the protein” and the “effect on rate of aggregation” value (p53 Y220C mutant [3]) is given as “slows down its rate of aggregation”.
In the case of `Cn1cc(-c2ccccc2)c(-n2cccc2)n1` [PhiKan7088], the “biological activity in cancer cell lines” value [4] is given as “biologically active”.
Work on `CCc1cc(Br)cc2c(CCN)c(C)[nH]c12` [Compound 6] yielded a Kd (p53 Y220C mutant [1]) of 940 ± 110 µM.
Work on `CCc1cccc2c(C3CCNCC3)c[nH]c12` [Compound 2] yielded a Kd (p53 Y220C mutant [1]; [6]) of 470 ± 90 µM.
For `O=C(O)c1cc(I)c(-n2cccc2)c(I)c1O` [Compound 9], the Kd (p53 Y220C mutant [5]; ITC, p53-Y220C ligand complex) was 21 µM, the increase in affinity (p53 Y220C mutant [5]; compound 9 relative to scaffold 4 without pyrrole) was 40 fold and the “ligand efficiency [LE]” value (p53 Y220C mutant [5]; from KD = 21 μM (ITC)) was 0.38 kcal/mol per non-hydrogen atom.
Compound `CN(C)CCn1cc(-c2ccc(F)cc2)c(-n2cccc2)n1` [Compound 7, PhiKan7242] has a Kd (p53 Y220C mutant [1]; [6]) of 2400 µM.
`c1ccn(-c2oc(C3CC3)nc2-c2nnn[nH]2)c1` [Compound 10] gave a Kd (p53 Y220C mutant [1]; [6]) of over 2000 µM.
Compound `Nc1ccc(C(F)(F)F)cc1N` [Compound 8] has a Kd (p53 Y220C mutant [1]; [6]) of over 10000 µM.
